Values of other authors in patent publication US20040022740A1, “Macrolide formulations for inhalation and methods of treatment of endobronchial infections” (priority 2003, published 2004).

oral bioavailability (in humans): 10-14%
elimination into the feces (in vivo): 62-81%
Compound: CC[C@H]1OC(=O)[C@H](C)[C@@H](O[C@H]2C[C@@](C)(OC)[C@@H](O)[C@H](C)O2)[C@H](C)[C@@H](O[C@@H]2O[C@H](C)C[C@H](N(C)C)[C@H]2O)[C@](C)(O)C[C@@H](C)[C@@H]2N[C@@H](COCCOC)O[C@H]([C@H]2C)[C@]1(C)O [dirithromycin]
